The target of the experiment is T1, GPR35 (Homo sapiens, UniProt Q9HC97).
T1 construct: expressed in transfected cells; host or cells: CHO-K1 cells co-expressing mitochondrial aequorin and Gα16
Nature of the experiment: cellular GPR35 phospho-ERK HTRF assay (inhibition of lodoxamide-induced phospho-ERK signal). The format is cell-based. The following applies: GPR35-CHO-K1-mt aequorin-Gα16 cell line; agonist lodoxamide at EC80; read-out: Activity Group (IC50, inhibition of GPR35 agonist-induced phospho-ERK signal). The source says:
The functional GPR35 assay as described in the accompanying examples measures the ability of GPR35 modulators to inhibit a GPR35 agonist-induced phospho-ERK signal. This is expressed as the concentration of modulator required to reduce the phospho-ERK signal by 50 percent, i.e. the IC50; the signal window being defined as the difference between agonist plus modulator vehicle (no modulator) and agonist vehicle (no agonist) controls.
The functional assay described measures the ability of GPR35 modulators to inhibit a GPR35 agonist-induced phospho-ERK signal. This is expressed as the concentration of modulator required to reduce the phospho-ERK signal by 50 percent, i.e. the IC50; the signal window being defined as the difference between agonist plus modulator vehicle (no modulator) and agonist vehicle (no agonist) controls.
This assay is a cellular GPR35 phospho-ERK homogeneous time resolved fluorescence (HTRF) assay using the GPR35-CHO-K1-mt aequorin-Gα16 cell line. Upon activation of GPR35 with the agonist lodoxamide at EC80 concentration, ERK 1/2 is phosphorylated, and after lysis of the cell membrane, phospho-ERK1/2 (Thr202/Tyr204) is detected in a sandwich assay using two different specific antibodies, one labelled with Eu^3+-cryptate (donor) and the second with d2 (acceptor). When the dyes are in proximity, the excitation of the donor with a light source (laser or flash lamp) triggers a Fluorescence Resonance Energy Transfer (FRET) towards the acceptor, resulting in specific acceptor fluorescence (at 665 nm). The specific signal is directly proportional to the amount of phospho-ERK1/2 (Thr202/Tyr204) in the sample. Compounds that interfere with the levels of phospho-ERK1/2 (Thr202/Tyr204) will result in a low HTRF signal.
For orientation: TR-FRET usually uses a lanthanide donor and a delayed reading to cut background.

The record followed here is patent US20260216198A1, “GPR35 MODULATORS” (ThirtyFiveBio Limited, priority 2023, published 2026).

T1 sequence (Q9HC97 whole entry): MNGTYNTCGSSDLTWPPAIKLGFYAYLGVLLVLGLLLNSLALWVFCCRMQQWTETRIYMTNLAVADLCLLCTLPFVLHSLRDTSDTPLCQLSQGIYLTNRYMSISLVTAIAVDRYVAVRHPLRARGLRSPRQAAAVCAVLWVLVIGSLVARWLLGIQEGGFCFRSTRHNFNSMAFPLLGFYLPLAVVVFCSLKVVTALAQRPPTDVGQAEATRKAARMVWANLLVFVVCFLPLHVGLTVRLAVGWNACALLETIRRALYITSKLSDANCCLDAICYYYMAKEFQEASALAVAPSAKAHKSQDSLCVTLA

As to `Cn1cc(-c2cccc(C(=O)Nc3ccc(OCCc4ccccc4)cc3)c2)cc(C(=O)O)c1=O` [Example 31, 1-Methyl-2-oxo-5-(3-((4-phenethoxyphenyl)carbamoyl)phenyl)-1,2-dihydropyridine-3-carboxylic acid], the 50% inhibitory concentration (IC50) fell in the range of 1000 to 10000 nM.

With `O=C(Nc1ccc(OCCc2ccccc2)cc1)c1cccc(-c2cnc(CN3CCOCC3)c(C(=O)O)c2)c1` [Example 32, 2-(Morpholinomethyl)-5-(3-((4-phenethoxyphenyl)carbamoyl)phenyl)nicotinic acid], the IC50 lay in the range of 1000 to 10000 nM.

In the case of `O=C(Nc1ccc(OCCc2ccccc2)cc1)c1cccc(-c2cnc(N3CCOCC3)c(C(=O)O)c2)c1` [Example 33, 2-Morpholino-5-(3-((4-phenethoxyphenyl)carbamoyl)phenyl)nicotinic acid], the IC50 is less than 1000 nM.

Turning to `CNc1ncc(-c2cccc(C(=O)Nc3ccc(OCCc4ccccc4)cc3)c2)cc1C(=O)O` [Example 34, 2-(Methylamino)-5-(3-((4-phenethoxyphenyl)carbamoyl)phenyl)nicotinic acid], the IC50 was less than 1000 nM.

On to `CN(C)c1ncc(-c2cccc(C(=O)Nc3ccc(OCCc4ccccc4)cc3)c2)cc1C(=O)O` [Example 35, 2-(Dimethylamino)-5-(3-((4-phenethoxyphenyl)carbamoyl)phenyl)nicotinic acid], for which the IC50 was less than 1000 nM.

For `O=C(Nc1ccc(OCCc2ccccc2)cc1)c1cccc(-c2cnc(NCCO)c(C(=O)O)c2)c1` [Example 36, 2-((2-Hydroxyethyl)amino)-5-(3-((4-phenethoxyphenyl)carbamoyl)phenyl)nicotinic acid], the half-maximal inhibitory concentration (IC50) was less than 1000 nM.

On to `COCCNc1ncc(-c2cccc(C(=O)Nc3ccc(OCCc4ccccc4)cc3)c2)cc1C(=O)O` [Example 37, 2-((2-Methoxyethyl)amino)-5-(3-((4-phenethoxyphenyl)carbamoyl)phenyl)nicotinic acid], for which the IC50 is less than 1000 nM.

Regarding `O=C(Nc1ccc(OCCc2ccccc2)cc1)c1cccc(-c2cnc(NC3CC3)c(C(=O)O)c2)c1` [Example 38, 2-(Cyclopropylamino)-5-(3-((4-phenethoxyphenyl)carbamoyl)phenyl)nicotinic acid], the 50% inhibitory concentration (IC50) was less than 1000 nM.

As to `Cc1ncc(-c2cccc(C(=O)Nc3ccc(COCc4ccccc4)cc3)c2)cc1C(=O)O` [Example 39, 5-(3-((4-((Benzyloxy)methyl)phenyl)carbamoyl)phenyl)-2-methylnicotinic acid], the IC50 was less than 1000 nM.

On to `Cc1ncc(-c2cccc(C(=O)Nc3cccc(COCc4ccccc4)c3)c2)cc1C(=O)O` [Example 40, 5-(3-((3-((Benzyloxy)methyl)phenyl)carbamoyl)phenyl)-2-methylnicotinic acid], for which the IC50 was 1000 to 10000 nM.

`Cc1ncc(-c2cccc(C(=O)Nc3ccc(OCC4CC4)cc3)c2)cc1C(=O)O` [Example 41, 5-(3-((4-(Cyclopropylmethoxy)phenyl)carbamoyl)phenyl)-2-methylnicotinic acid]: the half-maximal inhibitory concentration (IC50) fell in the range of 1000 to 10000 nM.

As for `Cc1ncc(-c2cccc(C(=O)Nc3ccc(COC4CC4)cc3)c2)cc1C(=O)O` [Example 42, 5-(3-((4-(Cyclopropoxymethyl)phenyl)carbamoyl)phenyl)-2-methylnicotinic acid], the IC50 lay within 1000 to 10000 nM.

With `Cc1ncc(-c2cccc(C(=O)Nc3ccc(CS(=O)(=O)Cc4ccccc4)cc3)c2)cc1C(=O)O` [Example 43, 5-(3-((4-((Benzylsulfonyl)methyl)phenyl)carbamoyl)phenyl)-2-methylnicotinic acid], the concentration for half-maximal inhibition (IC50) is 1000 to 10000 nM.

Consider `Cc1ncc(-c2cccc(C(=O)Nc3ccc(COCC4CC4)cc3)c2)cc1C(=O)O` [Example 44, 5-(3-((4-((Cyclopropylmethoxy)methyl)phenyl)carbamoyl)phenyl)-2-methylnicotinic acid], for which the half-maximal inhibitory concentration (IC50) lay in the range of 1000 to 10000 nM.

`O=C(Nc1ccc(COCC2CC2)cc1)c1cccc(-c2cnc(Cl)c(C(=O)O)c2)c1` [Example 45, 2-Chloro-5-(3-((4-((cyclopropylmethoxy)methyl)phenyl)carbamoyl)phenyl)nicotinic acid]: the IC50 was in the range of 1000 to 10000 nM.

Regarding `O=C(Nc1ccc(OCCc2ccccc2)nc1)c1cccc(-c2cccc(C(=O)O)n2)c1` [Example 46, 6-(3-((6-Phenethoxypyridin-3-yl)carbamoyl)phenyl)picolinic acid], the IC50 lay within 1000 to 10000 nM.

Turning to `Cc1ncc(-c2cccc(C(=O)Nc3ccc(COCc4ccccc4)cc3F)c2)cc1C(=O)O` [Example 47, 5-(3-((4-((Benzyloxy)methyl)-2-fluorophenyl)carbamoyl)phenyl)-2-methylnicotinic acid], the IC50 was 1000 to 10000 nM.

With `O=C(Nc1cccc(-c2cccc(C(=O)O)n2)c1)c1ccc(OCCCCc2ccccc2)cc1` [Example 48, 6-(3-(4-(4-Phenylbutoxy)benzamido)phenyl)picolinic acid], the IC50 is less than 1000 nM.

For the compound `Cc1ncc(-c2ncc(C(=O)Nc3ccc(COCc4ccccc4)cc3)s2)cc1C(=O)O` [Example 49, 5-(5-((4-((Benzyloxy)methyl)phenyl)carbamoyl)thiazol-2-yl)-2-methylnicotinic acid], the concentration for half-maximal inhibition (IC50) fell in the range of 1000 to 10000 nM.

For the compound `Cc1ncc(-c2nc(C(=O)Nc3ccc(COCc4ccccc4)cc3)cs2)cc1C(=O)O` [Example 50, 5-(4-((4-((Benzyloxy)methyl)phenyl)carbamoyl)thiazol-2-yl)-2-methylnicotinic acid], the IC50 lay within 1000 to 10000 nM.

Take `Cc1ncc(-c2cncc(C(=O)Nc3ccc(OCCc4ccccc4)cc3)c2)cc1C(=O)O` [Example 51, 6-Methyl-5′-((4-phenethoxyphenyl)carbamoyl)-[3,3′-bipyridine]-5-carboxylic acid]: the IC50 was in the range of 1000 to 10000 nM.

As to `Cc1ncc(-c2ccc(F)c(C(=O)Nc3ccc(COCc4ccccc4)cc3)c2)cc1C(=O)O` [Example 52, 5-(3-((4-((Benzyloxy)methyl)phenyl)carbamoyl)-4-fluorophenyl)-2-methylnicotinic acid], the IC50 was less than 1000 nM.

As to `Cc1ncc(-c2cc(C(=O)Nc3ccc(OCCc4ccccc4)cc3)ccn2)cc1C(=O)O` [Example 53, 6′-Methyl-4-((4-phenethoxyphenyl)carbamoyl)-[2,3′-bipyridine]-5′-carboxylic acid], the 50% inhibitory concentration (IC50) was less than 1000 nM.

As for `Cc1ncc(-c2cncc(C(=O)Nc3ccc(OCCc4ccccc4)cc3)n2)cc1C(=O)O` [Example 54, 2-Methyl-5-(6-((4-phenethoxyphenyl)carbamoyl)pyrazin-2-yl)nicotinic acid], the IC50 is 1000 to 10000 nM.

For the compound `Cc1ncc(-c2nccc(C(=O)Nc3ccc(OCCc4ccccc4)cc3)n2)cc1C(=O)O` [Example 55, 2-Methyl-5-(4-((4-phenethoxyphenyl)carbamoyl)pyrimidin-2-yl)nicotinic acid], the IC50 fell in the range of 1000 to 10000 nM.

Regarding `Cc1ncc(-c2cccc(C(=O)Nc3ccc(COCc4ccccc4)c(F)c3)c2)cc1C(=O)O` [Example 56, 5-[3-[[4-(Benzyloxymethyl)-3-fluoro-phenyl]carbamoyl]phenyl]-2-methyl-pyridine-3-carboxylic acid], the half-maximal inhibitory concentration (IC50) is less than 1000 nM.

For `Cc1ncc(-c2cccc(C(=O)Nc3cnn(CCc4ccccc4)c3)c2)cc1C(=O)O` [Example 57, 2-Methyl-5-[3-[[1-(2-phenylethyl)pyrazol-4-yl]carbamoyl]phenyl]pyridine-3-carboxylic acid], the 50% inhibitory concentration (IC50) is less than 1000 nM.

For `Cc1ccc(S(=O)(=O)Cc2ccc(NC(=O)c3cccc(-c4cnc(C)c(C(=O)O)c4)c3)cc2)cc1` [Example 58, 2-Methyl-5-[3-[[4-(p-tolylsulfonylmethyl)phenyl]carbamoyl]phenyl]pyridine-3-carboxylic acid], the concentration for half-maximal inhibition (IC50) was less than 1000 nM.

Take `Cc1ncc(-c2cccc(C(=O)Nc3ccc(COC(C)c4ccccc4)cc3)c2)cc1C(=O)O` (stereo not drawn) [Example 59, 2-Methyl-5-[3-[[4-(1-phenylethoxymethyl)phenyl]carbamoyl]phenyl]pyridine-3-carboxylic acid]: the IC50 was less than 1000 nM.

Regarding `Cc1ncc(-c2cccc(C(=O)Nc3ccc(OC(C)C4CC4)cc3)c2)cc1C(=O)O` (stereo not drawn) [Example 60, 5-[3-[[4-(1-Cyclopropylethoxy)phenyl]carbamoyl]phenyl]-2-methyl-pyridine-3-carboxylic acid], the half-inhibitory concentration (IC50) was less than 1000 nM.

Turning to `COc1cc(COCc2ccccc2)ccc1NC(=O)c1cccc(-c2cnc(C)c(C(=O)O)c2)c1` [Example 61, 5-[3-[[4-(Benzyloxymethyl)-2-methoxy-phenyl]carbamoyl]phenyl]-2-methyl-pyridine-3-carboxylic acid], the IC50 lay in the range of 1000 to 10000 nM.

As for `Cc1ncc(-c2cccc(C(=O)Nc3ccc(COCc4ccccn4)c(F)c3)c2)cc1C(=O)O` [Example 62, 5-[3-[[3-Fluoro-4-(2-pyridylmethoxymethyl)phenyl]carbamoyl]phenyl]-2-methyl-pyridine-3-carboxylic acid], the IC50 is 1000 to 10000 nM.

`COc1ccc(COCc2ccc(NC(=O)c3cccc(-c4cnc(C)c(C(=O)O)c4)c3)cc2F)cc1` [Example 63, 5-[3-[[3-Fluoro-4-[(4-methoxyphenyl)methoxymethyl]phenyl]carbamoyl]phenyl]-2-methyl-pyridine-3-carboxylic acid]: the concentration for half-maximal inhibition (IC50) was less than 1000 nM.

A word on the IC50: it is the point on the concentration scale where inhibition reaches its midpoint.
